According to patent US20110166149A1, “PTERIDINE DERIVATIVES FOR TREATING RESPIRATORY DISEASE” (TARGEGEN INC., priority 2008, published 2011):
Where two headings read alike, the source gives them in different places. Marks after values point to notes of the source that are not given here.

What was measured:
[1] = Inhalation exposure: Compound A concentration in lung, plasma and BALF (Example 2); format: in vivo, BALB/c mice; settings: for concentration at 8 h / concentration at 12 h / concentration at 24 h / concentration at 0.083 h / concentration at 0.25 h / concentration at 0.5 h / concentration at 1 h / concentration at 2 h / concentration at 4 h: male, BALB/c, mouse, lung, inhaled, read-out: Compound A concentration Lung; for concentration at 8 h / concentration at 12 h / concentration at 24 h / concentration at 0.083 h / concentration at 0.25 h / concentration at 0.5 h / concentration at 1 h / concentration at 2 h / concentration at 4 h / Compound A concentration Plasma: mice, 30 min inhalation
Experimental: A series of compositions for pulmonary delivery were prepared by making a 20% suspension of compound A in a 5% tyloxapol solution in water. Particle size reduction was achieved using a colloid mill (magicLAB®, MK module, for 6 hours @ 12,000 rpm, while maintaining a temperature below 50° C.). Samples at 4% w/v compound A were prepared by dilution with DI water.
Low (0.02 mg/L), mid (0.07 mg/L), and high (0.20 mg/L) target aerosol concentrations 0.3% Compound A/0.075% tyloxapol, 0.6% Compound A/0.15% tyloxapol, and 1.5% Compound A/0.375% tyloxapol suspensions were used. These low, mid, and high target formulations were prepared as follows: […]
4% compound A and 1% tyloxapol were removed from refrigeration and approximately 2.25, 4.5, and 12 mL were transferred into clean 50 mL graduated plastic tubes, labeled 0.3% A/0.075% tyloxapol, 0.6% A/0.15% tyloxapol, and 1.5% A/0.375% tyloxapol suspensions and allowed to warm to room temperature. Each was diluted to 20 mL with ultra pure water and vortexed until completely mixed. Each formulation was made the morning of exposure to alleviate any storing/stability issues.
Eighty-seven (87) male BALB/c mice (8 weeks of age on arrival and 18.6-24.6 g on exposure day) were purchased from Charles River Laboratories (Raleigh, N.C.). The three animals with the lowest body weights and the three with the highest body weights were excluded from the study on the day of randomization. The remaining eighty-one (81) animals were assigned to the study. Temperatures and relative humidity (RH) in animal housing areas were within the target range specified in the protocol.
Animals were exposed to one of three concentrations of Compound A aerosols for a target of 30 min.
The actual concentrations of test article in the exposure atmospheres were determined by chemical analysis of timed filter samples collected directly from a nose-only exposure port during exposure. In addition, one impactor sample was obtained to verify particle size distribution (PSD), which is characterized by mass median aerodynamic diameter (MMAD) and geometric standard deviation (GSD). The filters and impactor stages were analyzed chemically by LRRI and are described below.

[2] = Estimated lung exposure level calculated from respirable dose (Example 1); settings: 30 minute exposure assumed, mouse
Experimental: Estimated lung exposure levels were calculated based on the following assumptions: respirable dose collected from 7 stage impactor; 30 minute exposure time; mouse minute volume of 23 mL/min; mouse weight of 25 g; mouse lung weight of 250 mg (1% of body weight).

[3] = nominal aerosol 0.02 mg/L, 12 h
[4] = nominal aerosol 0.02 mg/L, 24 h
[5] = nominal aerosol 0.07 mg/L, 0.083 h
[6] = nominal aerosol 0.07 mg/L, 0.25 h
[7] = nominal aerosol 0.07 mg/L, 0.5 h
[8] = nominal aerosol 0.07 mg/L, 12 h
[9] = nominal aerosol 0.07 mg/L, 24 h
[10] = nominal aerosol 0.2 mg/L, 0.083 h
[11] = nominal aerosol 0.2 mg/L, 0.25 h
[12] = nominal aerosol 0.2 mg/L, 0.5 h
[13] = mouse lung, aerosol conc. 0.02 mg/L
[14] = mouse lung, aerosol conc. 0.07 mg/L
[15] = mouse lung, aerosol conc. 0.2 mg/L

For `Nc1nc(N)c2nc(-c3cccc(O)c3)c(-c3cccc(O)c3)nc2n1` [Compound A, 6,7-bis(3-hydroxyphenyl)-pteridine-2,4-diamine], the concentration at 8 h ([1]; nominal aerosol 0.02 mg/L, 8 h) was 5660 ± 3390 ng/g, the concentration at 12 h [1, 3] was 8670 ± 2310 ng/g and the concentration at 24 h [1, 4] was 3390 ± 2540 ng/g. The concentration at 0.083 h [1, 5] was 20600 ± 10100 ng/g, the concentration at 0.25 h [1, 6] was 16500 ± 2250 ng/g and the concentration at 0.5 h [1, 7] was 16600 ± 600 ng/g. For the same compound, the concentration at 1 h ([1]; nominal aerosol 0.07 mg/L, 1 h) was 17200 ± 2430 ng/g, the concentration at 2 h ([1]; nominal aerosol 0.07 mg/L, 2 h) was 22700 ± 5090 ng/g and the concentration at 4 h ([1]; nominal aerosol 0.07 mg/L, 4 h) was 17000 ± 1620 ng/g. The concentration at 8 h ([1]; nominal aerosol 0.07 mg/L, 8 h) was 15900 ± 3310 ng/g, the concentration at 12 h [1, 8] was 16800 ± 12500 ng/g and the concentration at 24 h [1, 9] was 10800 ± 660 ng/g. It also gave a concentration at 0.083 h [1, 10] of 41000 ± 10300 ng/g, a concentration at 0.25 h [1, 11] of 39200 ± 12300 ng/g and a concentration at 0.5 h [1, 12] of 67200 ± 39100 ng/g. It also gave a concentration at 1 h ([1]; nominal aerosol 0.2 mg/L, 1 h) of 37700 ± 8070 ng/g, a concentration at 2 h ([1]; nominal aerosol 0.2 mg/L, 2 h) of 49300 ± 15400 ng/g and a concentration at 4 h ([1]; nominal aerosol 0.2 mg/L, 4 h) of 44600 ± 2400 ng/g. For the same compound, the concentration at 8 h ([1]; nominal aerosol 0.2 mg/L, 8 h) was 44000 ± 12000 ng/g, the concentration at 12 h ([1]; nominal aerosol 0.2 mg/L, 12 h) was 40800 ± 6290 ng/g and the concentration at 24 h ([1]; nominal aerosol 0.2 mg/L, 24 h) was 26800 ± 2630 ng/g. For the same compound, the “Compound A concentration Plasma” value ([1]; nominal aerosol 0.02 mg/L, 0.083 h) was 2.16 (⅔) ng/mL, the “Compound A concentration Plasma” value ([1]; nominal aerosol 0.02 mg/L, 0.25 h) was “<LLOQ” and the “Compound A concentration Plasma” value ([1]; nominal aerosol 0.02 mg/L, 0.5 h) was 1.98 (⅔) ng/mL. For the same compound, the “Compound A concentration Plasma” value ([1]; nominal aerosol 0.02 mg/L, 1 h) was 1.19 (⅓) ng/mL, the “Compound A concentration Plasma” value ([1]; nominal aerosol 0.02 mg/L, 2 h) was “<LLOQ” and the “Compound A concentration Plasma” value ([1]; nominal aerosol 0.02 mg/L, 4 h) was “<LLOQ”. For the same compound, the “Compound A concentration Plasma” value ([1]; nominal aerosol 0.02 mg/L, 8 h) was “<LLOQ”, the “Compound A concentration Plasma” value [1, 3] was “<LLOQ” and the “Compound A concentration Plasma” value [1, 4] was “<LLOQ”. The “Compound A concentration Plasma” value [1, 5] was 5.43 (⅓) ng/mL, the “Compound A concentration Plasma” value [1, 6] was 1.03 (⅓) ng/mL and the “Compound A concentration Plasma” value [1, 7] was 2.45 (⅓) ng/mL. For the same compound, the “Compound A concentration Plasma” value ([1]; nominal aerosol 0.07 mg/L, 1 h) was “<LLOQ”, the “Compound A concentration Plasma” value ([1]; nominal aerosol 0.07 mg/L, 2 h) was “<LLOQ” and the “Compound A concentration Plasma” value ([1]; nominal aerosol 0.07 mg/L, 4 h) was “<LLOQ”. For the same compound, the “Compound A concentration Plasma” value ([1]; nominal aerosol 0.07 mg/L, 8 h) was “<LLOQ”, the “Compound A concentration Plasma” value [1, 8] was 2.05 (⅓) ng/mL and the “Compound A concentration Plasma” value [1, 9] was “<LLOQ”. For the same compound, the “Compound A concentration Plasma” value [1, 10] was 1.34 (⅔) ng/mL, the “Compound A concentration Plasma” value [1, 11] was 1.43 (⅓) ng/mL and the “Compound A concentration Plasma” value [1, 12] was 1.15 (⅓) ng/mL. The “Compound A concentration Plasma” value ([1]; nominal aerosol 0.2 mg/L, 1 h) was 1.62 (⅔) ng/mL, the “Compound A concentration Plasma” value ([1]; nominal aerosol 0.2 mg/L, 2 h) was 1.21 (⅓) ng/mL and the “Compound A concentration Plasma” value ([1]; nominal aerosol 0.2 mg/L, 4 h) was 1.21 (⅔) ng/mL. For the same compound, the “Compound A concentration Plasma” value ([1]; nominal aerosol 0.2 mg/L, 8 h) was 2.19 (⅓) ng/mL, the “Compound A concentration Plasma” value ([1]; nominal aerosol 0.2 mg/L, 12 h) was 2.08 (⅔) ng/mL and the “Compound A concentration Plasma” value ([1]; nominal aerosol 0.2 mg/L, 24 h) was “<LLOQ”. The Thalf ([1]; mouse BALF, aerosol conc. 0.02 mg/L) was 39.8 h, the Thalf ([1]; mouse BALF, aerosol conc. 0.07 mg/L) was 16.7 h and the Thalf ([1]; mouse BALF, aerosol conc. 0.2 mg/L) was 17.0 h. For the same compound, the “AUC(0-24)” value [1, 13] was 176 µg·h/g, the AUCinf [1, 13] was 247 µg·h/g and the Thalf ([1]; mouse lung, aerosol conc. 0.02 mg/L, Regression Coefficient is less than 0.9) was 14.5^# hrs. For the same compound, the “AUC(0-24)” value [1, 14] was 373 µg·h/g, the AUCinf [1, 14] was 757 µg·h/g and the Thalf ([1]; mouse lung, aerosol conc. 0.07 mg/L, Regression Coefficient is less than 0.9) was 24.6^# hrs. For the same compound, the “AUC(0-24)” value [1, 15] was 938 µg·h/g, the AUCinf [1, 15] was 1777 µg·h/g and the Thalf [1, 15] was 21.7 h. For the same compound, the Estimated lung conc. ([2]; 0.004% Compound A suspension) was 0.1 µg/g, the Estimated lung conc. ([2]; 0.04% Compound A suspension) was 1.4 µg/g and the Estimated lung conc. ([2]; 0.4% Compound A suspension) was 11 µg/g. It also gave an Estimated lung conc. ([2]; 4% Compound A suspension) of 75 µg/g.
